Biological target: T1, human TRPV3 (Homo sapiens, UniProt Q8NET8)
T1 construct: expressed in transfected cells; host or cells: HEK293
T1 sequence (Q8NET8 1-790): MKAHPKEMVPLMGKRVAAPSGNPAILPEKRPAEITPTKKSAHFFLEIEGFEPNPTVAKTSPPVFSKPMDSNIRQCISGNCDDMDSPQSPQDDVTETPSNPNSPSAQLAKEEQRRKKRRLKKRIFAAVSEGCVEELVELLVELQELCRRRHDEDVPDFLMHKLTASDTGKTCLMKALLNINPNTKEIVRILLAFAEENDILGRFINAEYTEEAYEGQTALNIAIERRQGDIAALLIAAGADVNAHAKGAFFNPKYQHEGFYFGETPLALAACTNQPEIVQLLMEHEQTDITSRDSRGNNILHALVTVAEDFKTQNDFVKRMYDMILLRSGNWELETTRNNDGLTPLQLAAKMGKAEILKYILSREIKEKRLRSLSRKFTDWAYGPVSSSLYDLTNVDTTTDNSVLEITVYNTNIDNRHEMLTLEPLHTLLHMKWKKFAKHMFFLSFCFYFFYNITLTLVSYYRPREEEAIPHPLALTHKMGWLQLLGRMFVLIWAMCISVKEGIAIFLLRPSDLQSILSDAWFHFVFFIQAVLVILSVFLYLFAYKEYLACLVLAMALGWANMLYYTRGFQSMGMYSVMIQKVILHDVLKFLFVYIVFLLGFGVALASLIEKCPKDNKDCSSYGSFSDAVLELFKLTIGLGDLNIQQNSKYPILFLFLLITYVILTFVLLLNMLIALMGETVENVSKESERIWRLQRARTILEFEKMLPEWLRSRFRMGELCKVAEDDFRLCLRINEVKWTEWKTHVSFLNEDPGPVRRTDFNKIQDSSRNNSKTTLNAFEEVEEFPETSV
Assay: Calcium flux assay (FLIPR TETRA), recombinant HEK293 cells expressing TRPV3, 2-APB response
Type: cell-based
Settings: 2-APB at its EC80
Method in brief: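 HEK293 cells stably expressing human or mouse TRPV3, loaded with Calcium-4 dye for 90–120 min, read on FLIPR TETRA. Peak fluorescence rise over baseline expressed as percent of the maximal response to 2-APB at its EC80 without compound.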

| Structure (SMILES) | IC50 [nM] |
| --- | --- |
| COc1ncnc(OC)c1C(=O)Nc1nc(-c2ccc(C(F)(F)F)cn2)c(S(=O)(=O)c2ccc(C)cc2)s1 [Example 109, 4,6-dimethoxy-N-[5-(p-tolylsulfonyl)-4-[5-(trifluoromethyl)-2-pyridyl]-1,3-thiazol-2-yl]pyrimidine-5-carboxamide] | 100 to 500 |
| COc1ncnc(OC)c1C(=O)Nc1nc(C(F)(F)F)c(-c2cn(C)nc2C(F)(F)F)s1 [Example 186, 4,6-dimethoxy-N-{5-[1-methyl-3-(trifluoromethyl)-1H-pyrazol-4-yl]-4-(trifluoromethyl)-1,3-thiazol-2-yl}pyrimidine-5-carboxamide] | < 50 |
| COc1ncnc(OC)c1C(=O)Nc1nc(CCOc2ccc(F)cc2)cs1 [Example 178, N-{4-[2-(4-fluorophenoxy)ethyl]-1,3-thiazol-2-yl}-4,6-dimethoxypyrimidine-5-carboxamide] | 500 to 1000 |
| COc1ncnc(OC)c1C(=O)Nc1nc(C(F)(F)F)cs1 [Example 3, 4,6-dimethoxy-N-[4-(trifluoromethyl)-1,3-thiazol-2-yl]pyrimidine-5-carboxamide] | 100 to 500 |
| COc1ncnc(OC)c1C(=O)Nc1nc(C(F)(F)F)c([C@@H]2CCCOC2)s1 (single isomer, unassigned) [Example 150] | 100 to 500 |
| CCSc1ncnc(OC)c1C(=O)Nc1nc(C(F)(F)F)c(-c2ccccc2C#N)s1 [Example 160, N-[5-(2-cyanophenyl)-4-(trifluoromethyl)-1,3-thiazol-2-yl]-4-(ethylsulfanyl)-6-methoxypyrimidine-5-carboxamide] | < 50 |
| COc1ncnc(OC)c1C(=O)Nc1nc(C(F)(F)F)c(-c2cnn(CC3CC3)c2)s1 [Example 175, N-{5-[1-(cyclopropylmethyl)-1H-pyrazol-4-yl]-4-(trifluoromethyl)-1,3-thiazol-2-yl}-4,6-dimethoxypyrimidine-5-carboxamide] | < 50 |
| COc1ncnc(OC)c1C(=O)Nc1nc(C(F)(F)F)c(C2CC(C(C)C)=NO2)s1 (centres unmarked) [Example 170, 4,6-dimethoxy-N-{5-[3-(propan-2-yl)-4,5-dihydro-1,2-oxazol-5-yl]-4-(trifluoromethyl)-1,3-thiazol-2-yl}pyrimidine-5-carboxamide] | 100 to 500 |
| COc1ncnc(OC)c1C(=O)Nc1nc(COc2ccccc2C)cs1 [Example 179, 4,6-dimethoxy-N-{4-[(2-methylphenoxy)methyl]-1,3-thiazol-2-yl}pyrimidine-5-carboxamide] | 100 to 500 |
| COc1ncnc(OC)c1C(=O)Nc1nc(C(F)(F)F)c(C2CC2)s1 [Example 37, N-[5-cyclopropyl-4-(trifluoromethyl)-1,3-thiazol-2-yl]-4,6-dimethoxypyrimidine-5-carboxamide] | < 50 |
| COc1ncnc(OC)c1C(=O)Nc1nc(C(F)(F)F)c(C2CCOC2)s1 (centres unmarked) [Example 146, 4,6-dimethoxy-N-[5-(tetrahydrofuran-3-yl)-4-(trifluoromethyl)-1,3-thiazol-2-yl]pyrimidine-5-carboxamide] | 100 to 500 |
| COc1ncnc(OC)c1C(=O)Nc1nc(C(F)(F)F)c(-c2cnc(N3CCOCC3)nc2)s1 [Example 36, 4,6-dimethoxy-N-{5-[2-(morpholin-4-yl)pyrimidin-5-yl]-4-(trifluoromethyl)-1,3-thiazol-2-yl}pyrimidine-5-carboxamide] | 50 to 100 |
| COc1ncnc(OC)c1C(=O)Nc1nc(C(F)(F)F)c(-c2ccc(F)nc2)s1 [Example 8, N-[5-(6-fluoropyridin-3-yl)-4-(trifluoromethyl)-1,3-thiazol-2-yl]-4,6-dimethoxypyrimidine-5-carboxamide] | 50 to 100 |
| COc1ncnc(OC)c1C(=O)Nc1nc(C(F)(F)F)c(C=O)s1 [Example 47, N-[5-formyl-4-(trifluoromethyl)-1,3-thiazol-2-yl]-4,6-dimethoxypyrimidine-5-carboxamide] | > 1000 |
| COc1ncnc(OC)c1C(=O)Nc1nc(C(F)(F)F)c(-c2ccnc3ccccc23)s1 [Example 167, 4,6-dimethoxy-N-[5-(quinolin-4-yl)-4-(trifluoromethyl)-1,3-thiazol-2-yl]pyrimidine-5-carboxamide] | < 50 |
| COc1ncnc(OC)c1C(=O)Nc1nc(C(F)(F)F)c(/C(=N/O)c2ccccc2)s1 [Example 126, N-{5-[(E)-(hydroxyimino)(phenyl)methyl]-4-(trifluoromethyl)-1,3-thiazol-2-yl}-4,6-dimethoxypyrimidine-5-carboxamide] | < 50 |
| COc1ncnc(OC)c1C(=O)Nc1nc(-c2ccc(C(F)(F)F)cn2)c(C)s1 [Example 95, 4,6-dimethoxy-N-{5-methyl-4-[5-(trifluoromethyl)pyridin-2-yl]-1,3-thiazol-2-yl}pyrimidine-5-carboxamide] | < 50 |
| COc1ncnc(OC)c1C(=O)Nc1nc(C2CCCC2)cs1 [Example 98, N-(4-cyclopentyl-1,3-thiazol-2-yl)-4,6-dimethoxypyrimidine-5-carboxamide] | 100 to 500 |
| COc1ncnc(OC)c1C(=O)Nc1nc(C(F)(F)F)c(/C(=N/O)c2ccccn2)s1 [Example 128, N-{5-[(E)-(hydroxyimino)(pyridin-2-yl)methyl]-4-(trifluoromethyl)-1,3-thiazol-2-yl}-4,6-dimethoxypyrimidine-5-carboxamide] | 100 to 500 |
| COc1ncnc(OC)c1C(=O)Nc1nc(-c2ccc(C(F)(F)F)cn2)c(C(C)O)s1 (single isomer, unassigned) [Example 83, N-{5-[(1R*)-1-hydroxyethyl]-4-[5-(trifluoromethyl)pyridin-2-yl]-1,3-thiazol-2-yl}-4,6-dimethoxypyrimidine-5-carboxamide] | 100 to 500 |
| COc1ncnc(OC)c1C(=O)Nc1nc(C(F)(F)F)c(C2=CCOCC2)s1 [Example 38, N-[5-(3,6-dihydro-2H-pyran-4-yl)-4-(trifluoromethyl)-1,3-thiazol-2-yl]-4,6-dimethoxypyrimidine-5-carboxamide] | < 50 |
| COc1ncnc(OC)c1C(=O)Nc1nc(C(F)(F)F)c(C2CCOCC2)s1 [Example 39, 4,6-dimethoxy-N-[5-(tetrahydro-2H-pyran-4-yl)-4-(trifluoromethyl)-1,3-thiazol-2-yl]pyrimidine-5-carboxamide] | 50 to 100 |

More lines, now with the values ahead:

| IC50 [nM] | Structure (SMILES) |
| --- | --- |
| < 50 | CCn1cc(-c2sc(NC(=O)c3c(OC)ncnc3OC)nc2C(F)(F)F)c(C)n1 [Example 200, N-[5-(1-ethyl-3-methyl-1H-pyrazol-4-yl)-4-(trifluoromethyl)-1,3-thiazol-2-yl]-4,6-dimethoxypyrimidine-5-carboxamide] |
| 100 to 500 | COc1ncnc(OC)c1C(=O)Nc1nc(C(F)(F)F)c(-c2ccncc2C#N)s1 [Example 24, N-[5-(3-cyanopyridin-4-yl)-4-(trifluoromethyl)-1,3-thiazol-2-yl]-4,6-dimethoxypyrimidine-5-carboxamide] |
| < 50 | COc1ncnc(OC)c1C(=O)Nc1nc(C(C)(C)C)c(F)s1 [Example 100, N-(4-tert-butyl-5-fluoro-1,3-thiazol-2-yl)-4,6-dimethoxypyrimidine-5-carboxamide] |
| < 50 | COc1ncc(-c2sc(NC(=O)c3c(OC)ncnc3OC)nc2C(F)(F)F)cc1C#N [Example 184, N-[5-(5-cyano-6-methoxypyridin-3-yl)-4-(trifluoromethyl)-1,3-thiazol-2-yl]-4,6-dimethoxypyrimidine-5-carboxamide] |
| 50 to 100 | COc1ncnc(OC)c1C(=O)Nc1nc(C(F)(F)F)c(Sc2ccccc2)s1 [Example 115, 4,6-dimethoxy-N-[5-phenylsulfanyl-4-(trifluoromethyl)-1,3-thiazol-2-yl]pyrimidine-5-carboxamide] |
| > 1000 | COc1ncnc(OC)c1C(=O)Nc1nc(/C=C/C2CC2)cs1 [Example 103, N-{4-[(E)-2-cyclopropylethenyl]-1,3-thiazol-2-yl}-4,6-dimethoxypyrimidine-5-carboxamide] |
| > 1000 | COc1ncnc(OC)c1C(=O)Nc1nc(C(F)(F)F)c(C(=O)c2ccccn2)s1 [Example 127, 4,6-dimethoxy-N-[5-(pyridin-2-ylcarbonyl)-4-(trifluoromethyl)-1,3-thiazol-2-yl]pyrimidine-5-carboxamide] |
| < 50 | COc1ncnc(OC)c1C(=O)Nc1nc(C(F)(F)F)c(/C(=N/O)c2ccc(F)cn2)s1 [Example 132, N-{5-[(E)-(5-fluoropyridin-2-yl)(hydroxyimino)methyl]-4-(trifluoromethyl)-1,3-thiazol-2-yl}-4,6-dimethoxypyrimidine-5-carboxamide] |
| 500 to 1000 | COc1ncnc(OC)c1C(=O)Nc1nc(C(F)(F)F)c(-c2cnc(N3CCOCC3)cn2)s1 [Example 29, 4,6-dimethoxy-N-{5-[5-(morpholin-4-yl)pyrazin-2-yl]-4-(trifluoromethyl)-1,3-thiazol-2-yl}pyrimidine-5-carboxamide] |
| < 50 | COc1ncnc(OC)c1C(=O)Nc1nc(C(F)(F)F)c(-c2ccc(Cl)cn2)s1 [Example 46, N-[5-(5-chloropyridin-2-yl)-4-(trifluoromethyl)-1,3-thiazol-2-yl]-4,6-dimethoxypyrimidine-5-carboxamide] |

Source: patent US20180243298A1, “TRPV3 MODULATORS” (AbbVie Inc., priority 2015, published 2018)
